Data on one molecule can be found in publication PMC5588548, “Suramin Inhibits Osteoarthritic Cartilage Degradation by Increasing Extracellular Levels of Chondroprotective Tissue Inhibitor of Metalloproteinases 3” (Molecular Pharmacology, 2017).

Values after ≈ are worked out from the molar mass of the structure shown.

One series concerns human OA chondrocytes. Description: Cell viability assay (MTS), human OA chondrocytes. Type of series: cell-based. The note with it: suramin 0–250 µg/ml, 48 hours. How it is done: HTB94 chondrosarcoma cells or human OA chondrocytes (10^3 cells per well in 96-well plates) were plated overnight in DMEM with 10% FCS. Cells were washed in serum-free cartilage medium and treated for 48–72 hours with suramin (0–250 µg/ml) or sodium nitroprusside (10 mM) as a control to induce cell death. Cell viability was then assessed using the 3-(4,5-dimethylthiazol-2-yl)-5-(3-carboxymethoxyphenyl)-2-(4-sulfophenyl)-2H-tetrazolium CellTiter Cell Proliferation Assay (Promega) according to the manufacturer’s instructions (mean ± S.D., n = 3).

For series [1], the system named is TIMP-3 mRNA. Description: TIMP-3 mRNA analysis in HTB94 cells (quantitative PCR). The note with it: suramin 0–250 µg/ml, 18 hours. Type of series: cell-based. How it is done: (§1) HTB94 chondrosarcoma cells or primary human chondrocytes (1 × 10^6 cells) were treated in triplicate with 0–250 µg/ml suramin in serum-free DMEM for 18–48 hours. Total RNA was isolated from cells using an RNeasy mini kit (Qiagen, Crawley, UK) and cDNA was synthesized (reverse transcriptase kit; Applied Biosystems, Foster City, CA). Levels of TIMP-1, TIMP-2, TIMP-3, LRP1, and RPLP0 internal reference mRNA were quantified by real-time polymerase […] chain reaction on a Corbett Rotor-Gene 6000 (Corbett Life Science, Mortlake, NSW, Australia) using TaqMan Fast Universal PCR Master Mix (Applied Biosystems) and TaqMan probes (Applied Biosystems) Hs01092512_g1 for TIMP-1, Hs00234278_m1 for TIMP-2, Hs00165949_m1 for TIMP-3, Hs00233856_m1 for LRP1, and Hs99999902_m1 for RPLP0. The ΔΔ threshold cycle values (mean ± S.D., n = 3 technical replicates) are shown relative to control untreated HTB94 cells (defined as 1).

The test system of another series is LRP1 mRNA. In words: LRP1 mRNA analysis in HTB94 cells (quantitative PCR). The series is classed as cell-based. Particulars: 18 hours. How it is done: as §1
Series [2] relates to TIMP-3 mRNA. Description: TIMP-3 mRNA analysis in human OA chondrocytes (quantitative PCR). Type of series: cell-based. Particulars: suramin 0–250 µg/ml, 48 hours. How it is done: as §1
In series [3] the test system is primary chondrocytes isolated from human OA cartilage. In words: Accumulation of endogenous TIMP-3 in medium of human OA chondrocytes. Type of series: cell-based. Particulars: suramin 0–250 µg/ml, 48 hours. How it is done: (§2) Cells (HTB94 chondrosarcoma cells, primary porcine chondrocytes, or human osteoarthritic chondrocytes) were plated overnight (6 × 10^5 cells per well of a 12-well plate) in DMEM containing 10% FCS and washed three times in serum-free DMEM. […] Media were harvested, precipitated with trichloroacetic acid, and analyzed by immunoblotting using a rabbit anti–TIMP-3 polyclonal antibody (AB6000; Millipore, Hertfordshire, UK) and an alkaline phosphatase–conjugated anti-rabbit secondary antibody (Promega). TIMP-3 in the medium (mean ± S.D., n = 3) was calculated relative to the pixel volume of untreated cells (defined as 1).

In the next series the test system is LRP1 ectodomain. Description: Shedding of LRP1 ectodomain into medium of HTB94 cells (immunoblot). Particulars: suramin 50–250 µg/ml, 30 hours. The series is classed as cell-based.
Series [4] has as its system human OA cartilage explants. Description: Aggrecan release from human OA cartilage explants (DMMB assay). The series is classed as cell-based. The note with it: 48 hours. The method, then:
The effects of suramin on cartilage degradation were assessed using porcine or human cartilage explants. Explants were rested for 48 hours after dissection and were washed with serum-free DMEM. Explants were then treated with retinoic acid (1 µM; Sigma-Aldrich), interleukin (IL)-1 (10 ng/ml; Peprotech, London, UK), and/or suramin (0–250 µg/ml) in serum-free DMEM for 48 hours.
Aggrecan degradation was analyzed by quantifying aggrecan fragments released into the conditioned media using the dimethylmethylene blue (DMMB) dye-binding assay ([Farndale et al., 1986]) (mean ± S.D., n = 3) and by immunoblotting with neo-epitope antibodies that recognize ADAMTS-cleaved but not intact aggrecan. For immunoblotting, conditioned media were deglycosylated by adding an equal volume of 200 mM sodium acetate and 50 mM Tris/HCl, pH 6.8, containing chondroitinase and β-endoglycosidase (0.05 U each; 18 hours, 37°C; Sigma-Aldrich). Aggrecan fragments were precipitated by adding five volumes of ice-cold acetone (18 hours, −20°C). After centrifugation (13,000 rpm, 10 minutes, 4°C), pellets were resuspended in SDS sample buffer, separated by electrophoresis on a 6% (v/v) polyacrylamide gel, and blotted onto polyvinylidene fluoride. […]

In series [5] the test system is primary chondrocytes isolated from normal porcine cartilage. Description: Accumulation of endogenous TIMP-3 in medium of porcine chondrocytes. Particulars: suramin 0–250 µg/ml, 48 hours. The series is classed as cell-based. How it is done: as §2
In the next series the target is T1, MMP-2 (Homo sapiens, UniProt P08253).
T1 sequence (P08253 110-660): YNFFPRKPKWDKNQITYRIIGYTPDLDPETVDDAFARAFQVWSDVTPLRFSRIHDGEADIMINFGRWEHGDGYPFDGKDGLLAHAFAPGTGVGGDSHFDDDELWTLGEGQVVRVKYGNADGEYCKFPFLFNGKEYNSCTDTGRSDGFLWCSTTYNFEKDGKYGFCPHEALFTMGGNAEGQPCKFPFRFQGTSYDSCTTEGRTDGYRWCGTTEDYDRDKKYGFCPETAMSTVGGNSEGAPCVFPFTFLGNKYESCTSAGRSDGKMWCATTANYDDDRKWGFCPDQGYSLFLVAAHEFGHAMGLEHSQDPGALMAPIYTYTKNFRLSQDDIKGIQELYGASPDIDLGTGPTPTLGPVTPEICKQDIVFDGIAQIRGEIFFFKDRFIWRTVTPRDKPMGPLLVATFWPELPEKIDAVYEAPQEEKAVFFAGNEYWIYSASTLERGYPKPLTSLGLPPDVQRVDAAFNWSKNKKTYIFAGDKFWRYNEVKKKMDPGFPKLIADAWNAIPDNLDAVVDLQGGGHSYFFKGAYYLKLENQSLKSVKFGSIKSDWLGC
Description: MMP-2 activity in vitro (data not shown). Type of series: biochemical.

On the set-up of series [6]: method as in Voogd et al., 1993. Particulars: ref Voogd et al., 1993; cited from earlier work.
Series [7] has as its system porcine cartilage explants. In words: Aggrecan release from porcine cartilage explants (DMMB assay, neo-epitope immunoblotting). The series is classed as cell-based. The method, then:
The effects of suramin on cartilage degradation were assessed using porcine or human cartilage explants. Explants were rested for 48 hours after dissection and were washed with serum-free DMEM. […]
Aggrecan degradation was analyzed by quantifying aggrecan fragments released into the conditioned media using the dimethylmethylene blue (DMMB) dye-binding assay ([Farndale et al., 1986]) (mean ± S.D., n = 3) and by immunoblotting with neo-epitope antibodies that recognize ADAMTS-cleaved but not intact aggrecan. For immunoblotting, conditioned media were deglycosylated by adding an equal volume of 200 mM sodium acetate and 50 mM Tris/HCl, pH 6.8, containing chondroitinase and β-endoglycosidase (0.05 U each; 18 hours, 37°C; Sigma-Aldrich). Aggrecan fragments were precipitated by adding five volumes of ice-cold acetone (18 hours, −20°C). After centrifugation (13,000 rpm, 10 minutes, 4°C), pellets were resuspended in SDS sample buffer, separated by electrophoresis on a 6% (v/v) polyacrylamide gel, and blotted onto polyvinylidene fluoride. Membranes were blocked with 5% (m/v) BSA in Tris-buffered saline and incubated with either a rabbit antibody that recognizes the AGEG neo-epitope generated by ADAMTS cleavage of the TAQE^1771∼^1772AGEG bond of aggrecan ([Troeberg et al., 2008]) or a mouse antibody that recognizes the ARGSV neo-epitope generated by ADAMTS cleavage of the NITEGE^373∼^374ARGSV bond ([Hughes et al., 1995]).

In the case of `Cc1ccc(C(=O)Nc2ccc(S(=O)(=O)O)c3cc(S(=O)(=O)O)cc(S(=O)(=O)O)c23)cc1NC(=O)c1cccc(NC(=O)Nc2cccc(C(=O)Nc3cc(C(=O)Nc4ccc(S(=O)(=O)O)c5cc(S(=O)(=O)O)cc(S(=O)(=O)O)c45)ccc3C)c2)c1` [suramin], the “cell viability (MTS)” value in the series on human OA chondrocytes is reported as “did not affect”; in the series on human OA chondrocytes (listed as Suramin), “without any significant change”. Besides, the “TIMP-3 mRNA levels” value in the series with TIMP-3 mRNA [1] was “not associated with any significant change”; in the series on TIMP-3 mRNA [2], “without any significant change”. Moreover, the “increase in expression of LRP1 mRNA” value in the series on LRP1 mRNA (suramin 250 µg/ml) is reported as 3 fold. Moreover, in the series with LRP1 mRNA (suramin up to 200 µg/ml), the “expression of LRP1 mRNA” value is reported as “unaffected”. Moreover, the “endocytosis of endogenously expressed TIMP-3” value in [3] and in series [5] was “inhibited endocytosis” each time. Moreover, the “shedding of LRP1 ectodomain into the medium” value in the series on LRP1 ectodomain is listed as “not affected”. In addition, the aggrecan degradation result was “dose-dependently inhibited” in series [4] (human OA cartilage explants stimulated with IL-1 10 ng/ml or retinoic acid 1 µM) and “unable to inhibit” in series [7] (porcine cartilage, retinoic acid 1 µM, 30 hours, with anti–TIMP-3 antibody MAB973 50 µg/ml). Besides, the IC50 in [4] (human OA cartilage explants, retinoic acid 1 µM, read-out: IC50 for inhibition of aggrecan degradation) amounted to 62 ± 16 µg/mL (≈ 47.8 µM); in [7] (Sus scrofa, 48 h, porcine cartilage explants, retinoic acid 1 µM, 48 hours, DMMB assay, read-out: IC50 for inhibition of aggrecan release) it was 98 ± 9 µg/mL (≈ 75.5 µM). Further, the “MMP-2 activity in vitro” value at MMP-2 is “inhibit MMP-2 activity”. Moreover, in [6], the oral bioavailability result was “not orally bioavailable”. Also, the aggrecan release entry in series [7] (porcine cartilage explants stimulated with IL-1 10 ng/ml or retinoic acid 1 µM, 48 hours, DMMB assay) is “effectively inhibited”; in series [7] (porcine cartilage, retinoic acid 1 µM, 30 hours, with isotype control antibody 50 µg/ml) it was “significantly inhibited”. Moreover, the “aggrecan degradation at ADAMTS-susceptible NITEGE373∼374ARGSV and TAQE1771∼1772AGEG sites (neo-epitope immunoblotting)” value in series [7] (porcine cartilage explants, retinoic acid 1 µM, 48 hours) was “inhibited”.
